Experimental data from patent US7825134B2, “Amelioration of cataracts, macular degeneration and other ophthalmic diseases” (Othera Holding, Inc., priority 2003, dated 2010).
“Also recorded” adds a separate entry of the source. Structures can show the parent of a compound that is named as a salt.

Assays:
[1] = Aqueous solubility at room temperature; format: physicochemical; details: thermodynamic from solid
Text: It may be preferred that at least 0.1% solubility is needed for an eye drop, even for a suspension formulation. Completely water-insoluble compounds may not be effective. Esters that are soluble in water (>0.1% weight by volume) are preferred. Esters with less than 0.1% solubility may be used in the form of suspensions or ointments or other formulations. […]

[2] = Pharmacokinetics and ocular tissue distribution of total radioactivity after single topical dose; format: in vivo, New Zealand White (Harlan) rabbits
Protocol: Pharmacokinetics, Ocular Tissue Distribution, and Urinary Excretion of Total Radioactivity Following Single Topical Dose Administration of Compound 1 in Rabbits. The pharmacokinetics, ocular tissue distribution and urinary excretion of total radioactivity following a single topical dose administration of the tritiated hydrochloride of Compound 1 in rabbits was evaluated. Eighteen male New Zealand White (Harlan) rabbits, age 3-6 months, weight 2.1 to 3.0 kg were utilized.
Experimental Design: The experimental design was a randomized, single-treatment study in one group of rabbits administered a single topical application of [^3H]Compound 1-HCl into both eyes. The group consisted of 6 subgroups of 3 animals. At six specified times (0.5, 1, 2, 4, 8 and 24 hours) post-dose, three animals per subgroup were euthanized and terminal samples collected. Animals designated to the 24 hour post-dose subgroup were placed in metabolism cages and urine was collected from 0-12 and 12-24 hours post-dose. Terminal blood was collected by cardiac puncture technique. From each eye, the following ocular tissues were harvested: aqueous humor; vitreous humor; lens; and cornea. Total radioactivity was determined in all samples.
Animals received a single topical ocular dose in each eye, right (OD) followed by left (OS). While slightly pulling away the lower eyelid from the globe, the dose was accurately pipetted onto the cornea and allowed to collect in the lower conjunctival sac. The eyelids were gently held shut for 1 minute after drug instillation and then carefully released.
Data analysis and statistical evaluation: Counts per minute for all assayed samples were converted to disintegrations per minute (DPM) using a Beckman LS6000 counter. Following appropriate background subtraction, DPM values were converted to concentrations (DPM per ml or g). Average DPM per ml or g values were calculated. Mean concentration values of ^3H radioactivity were calculated and converted to equivalents per ml or g based on the measured specific activity and nominal concentration of the administered test article formulation as determined by oxidation. Concentrations of total radioactivity in blood and plasma, amount (% of dose) and concentration in ocular tissue and urine samples were determined. Elimination kinetics including blood, plasma, and tissue half-lives were calculated. Urinary excretion data were also tabulated. Statistical evaluation consisted of descriptive statistical analysis. Pharmacokinetics of radioactivity were evaluated by model independent analyses pending suitability of sample assay results. Non-truncated numerical values were used in the calculations.

[3] = Identification of metabolites of Compound 1 in rabbit aqueous humor (GC/MS); format: in vivo; details: GC/MS of rabbit aqueous humor after topical dosing
Protocol: Aqueous humor samples, from the in vivo rabbit study described in Example 16 were identified by GC/MS for the presence of compound 1 and its metabolites, tempol-H and carboxylic acid (R1COOH), formed by hydrolysis of compound 1 by ocular esterases. Both the metabolites were observed but not Compound 1.
A sample of aqueous humor was freeze dried in a 10 mL amber colored glass vial containing a tiny magnetic bar. To this was added 1 mL of methylene chloride and the solution was stirred for two minutes and allowed to stand for five minutes. A 3 μL aliquot of the methylene chloride layer was injected into the GC column. The cyclopropanecarboxylic acid was detected by a mass spectrometer detector at 13.02 (retention time) with m/z=85 (GC model […] series II (both made by HP)). Agilent DB-5 column 25 m length, 0.2 mm diameter was used. Carrier gas He at 22 cm/sec. Inlet temperature was 250° C., detector 280° C. For every injection, the temperature was held at 35° C. for 5 minutes, then was increased to 240° C. at 10° C./min, and was held at 240° C. for 3 minutes. Splitless injection was used.

rabbit eyes = test: Tolerance in vivo in rabbit eyes; parameters: species or system rabbits
Protocol: Eyedrops containing 3.5% compound 1 were administered six times, at 1-hour intervals, to each eye of two conscious rabbits.
It was previously established that dosing rabbits with a 3% solution of Compound 1, 4 times daily, for one week caused no toxicity.

[4] = Drug penetration of organ cultured rat lenses (ESR); format: in vitro ADME, Sprague-Dawley rats; details: for Concentration of tempol-H in lens water: Sprague-Dawley, rat, 4 mM
Protocol: Method: Rat lenses were cultured as follows: Rat lenses were obtained from Sprague-Dawley rats. The lenses were incubated in 24-well cluster dishes in modified TC-199 medium and were placed in a 37° C. incubator with a 95% air/5% CO2 atmosphere. The lenses were incubated in 2 ml of culture medium, which was adjusted to 300 milliosmoles (mOsm). […] In one experiment, lenses were incubated for 4 hours and dissected into epithelial, cortical and nuclear sections before analysis.

[5] = Absorption across the cornea: aqueous humor tempol-H after topical eye drops (ESR); format: in vivo, New Zealand White rabbits; details: all time points (30, 60, 120 minutes) after topical 3.5% solution
Protocol: Groups of six New Zealand White rabbits were used in the study to evaluate the absorption of tempol-H and compound 1. The test compounds were prepared in sterile saline solutions at a concentration of 3.5% weight by volume. The animals were held in restraining boxes during instillation of eye drops, 50 μL in each eye, using a micropipette. After dosing, the eye was gently held closed for 60 seconds. The rabbits were dosed twice daily for 4 consecutive days. On the fifth day, rabbits were dosed once and then euthanized at 30 minutes post dose (2 rabbits), 60 minutes post-dose (2 rabbits) and at 120 minutes post-dose (2 rabbits). Immediately after euthanization, aqueous humor was collected from each rabbit. The aqueous concentration of tempol-H in each sample was measured using the electron spin resonance (ESR) method.

[6] = Measured octanol/water partition coefficient; format: physicochemical
Text: Esters are selected for these tests based on their calculated or measured octanol/water partition coefficient (P). Hydrophilic compounds such as tempol-H cannot penetrate the lipophilic epithelial layer of the cornea. Partition coefficients of tempol-H and esters that penetrate are as follows: […]

[7] = tested on: ARPE-19 cells that have accumulated A2E; test: Protection against A2E-mediated blue light damage in RPE cells; format: cell-based; details: 24 hours pre-treatment; 430+/−20 nm light; MTT and two-color fluorescence assays; FIG. 3 and FIG. 4
Protocol: Materials and Methods: ARPE-19 cells that have accumulated A2E in culture were exposed to 430+/−20 nm light delivered from a halogen source. This wavelength of light is relevant since (i) the excitation maximum of A2E is approximately 430 nm, and (ii) light of this wavelength reaches the RPE in vivo while light of wavelengths […] by the cornea and lens. Cell death in blue light-illuminated A2E-laden RPE was compared with and without pre-treatment (24 hours) with tempol-H. The loss of cell viability was quantified by: • 1. A calorimetric microtiter assay based on ability of healthy metabolically active cells to cleave the yellow tetrazolium salt MTT to purple formazan crystals. Cell viability was assessed 24 hours after blue light illumination. Triplicate wells were assayed in each of 2 experiments. • 2. Two-color fluorescence assay in which the nuclei of all dead cells appear red due to staining by a membrane-impermeant dye (Dead Red nuclei acid stain, Molecular Probes) with the nuclei of all cells stained blue with DAPI. Cell viability was assessed 8 hours after blue light illumination. Replicates were assayed by counting cells within 5 microscopic fields within the area of illumination in each well and 3 wells were assayed per experiment. Data are based on of 3 experiments.

[8] = 30 minutes post-dose, single drop (40 ul) of 3% solution, total radioactivity

**Q.** Which melting point does the source give for CC1(C)CC(OC(=O)c2ccco2)CC(C)(C)N1O.Cl here?
**A.** 209.4 to 210.4 °C

**Q.** With CCOCC(C)(C)C(=O)OC1CC(C)(C)N(O)C(C)(C)C1.Cl as the molecule, how does the melting point read?
**A.** 140 to 142 °C (dec.)

**Q.** What does the source list for CC1(C)CC(OC(=O)C2CC2)CC(C)(C)N1O.Cl [Compound 1, 1-hydroxy-4-cyclopropanecarbonyloxy-2,2,6,6-tetramethylpiperidine Hydrochloride]?
**A.** solubility ([1]; 0.01 M acetate buffer, pH 4.8, aqueous buffer, 0.01 M Acetate buffer at pH 4.8, room temperature): 68.6 mg/mL; solubility ([1]; 0.01 M citrate buffer, pH 4.8, aqueous buffer, 0.01 M Citrate buffer at pH 4.8, room temperature): 71.1 mg/mL; solubility ([1]; 0.9% sodium chloride, saline or isotonic, room temperature): 40.5 mg/mL; solubility ([1]; water with 1% w/v glycerin, water, Water + 1% w/v glycerin, room temperature): 62.2 mg/mL; solubility ([1]; water with 1% w/v propylene glycol, water, Water + 1% w/v propylene glycol, room temperature): 63.8 mg/mL; solubility ([1]; water, room temperature): 74.9 mg/mL; Peak concentration, Blood [2, 8]: 240 nanogram equivalents/gram; Peak concentration, Plasma [2, 8]: 360 nanogram equivalents/gram; Peak tissue concentration, Aqueous [2, 8]: 5930 nanogram equivalents/gram; Peak tissue concentration, Cornea [2, 8]: 13090 nanogram equivalents/gram; Peak tissue concentration, Lens [2, 8]: 310 nanogram equivalents/gram; Peak tissue concentration, Vitreous [2, 8]: 150 nanogram equivalents/gram; Radioactivity in tissues at 24 hours post-dose ([2]; all tissues, FIG. 2): still measurable in all tissues; Conversion to metabolites (tempol-H and carboxylic acid) in aqueous humor [3]: completely converted to its metabolites; Toxicity (rabbit eyes; 3% solution, 4 times daily, for one week): no toxicity; Ocular tolerance (rabbit eyes; eyedrops 3.5%, six times at 1-hour intervals, each eye of two conscious rabbits): well tolerated and no adverse findings were noted

**Q.** For CC(C)(CO)C(=O)OC1CC(C)(C)N(O)C(C)(C)C1 [Example 10, 1-hydroxy-4-(3′-hydroxy-2′,2′-dimethyl)propanecarbonyloxy-2,2,6,6-tetramethylpiperidine Hydrochloride], which solubility ([1]; water, room temperature) is on record?
**A.** > 35 mg/mL

**Q.** Which solubility ([1]; water, room temperature) does the source give for CC1(C(=O)OC2CC(C)(C)N(O)C(C)(C)C2)CC1.Cl [Example 12, 1-hydroxy-4-(1-methyl-cyclopropane)carbonyloxy-2,2,6,6-tetramethylpiperidine Hydrochloride] here?
**A.** ≥ 1 mg/mL

**Q.** What about the melting point of the same molecule?
**A.** 215 to 220 °C (dec.)

**Q.** Which solubility ([1]; water, room temperature) does the source give for CC1(C)CC(OC(=O)C2CCOC2)CC(C)(C)N1O.Cl (stereo not drawn) [Example 16, 1-hydroxy-4-(3′-tetrahydrofuran)carbonyloxy-2,2,6,6-tetramethylpiperidine Hydrochloride] here?
**A.** > 35 mg/mL

**Q.** What does the source list for CC1(C)CC(O)CC(C)(C)N1O [Tempol-H, 1,4-dihydroxy-2,2,6,6-tetramethylpiperidine]?
**A.** Concentration of tempol-H in lens water ([4]; 1 h): 400 µM; Concentration of tempol-H in lens water ([4]; 2 h): 800 µM; Concentration of tempol-H in lens water ([4]; 4 h): 1000 µM; Aqueous humor levels of tempol-H [5]: below detectable limits; P (measured) [6]: 0.5; Protection against the death of blue light-illuminated A2E-laden RPE [7]: dose-dependent protection; also recorded: protect

**Q.** With CC1(C)CC(O)CC(C)(C)N1[O] [tempol] as the molecule, how does the “Share in the oxidized form in the epithelium” value ([4]; 4-hour incubation with tempol) read?
**A.** about 5%

**Q.** What about the “Oxidized form tempol found in the lens” value ([4]; after incubation with 4.0 mM tempol) of the same molecule?
**A.** ≤ 5%
